Experiment: Stability of CV-8972 in aqueous solution at different concentrations and pH
Type: physicochemical
Experimental: The stability of CV-8972 was analyzed. Aqueous samples containing CV-8972 at different concentrations and pH were incubated for various periods and analyzed.
Form A of CV-8972 were analyzed for stability in aqueous solution. Aqueous samples containing CV-8972 at different concentrations and pH were incubated for various periods and analyzed.

[1] = 289-MBA-15-A 2 mg/mL pH 6 (Form B), 22 hrs, pH 6.7
[2] = 289-MBA-15-A 2 mg/mL pH 7 (Form B), 0 hrs, pH 6.5
[3] = 289-MBA-15-A 2 mg/mL pH 7 (Form B), 1 hrs, pH 6.6
[4] = 289-MBA-15-A 2 mg/mL pH 7 (Form B), 4 hrs, pH 6.5
[5] = 289-MBA-15-A 10 mg/mL pH 6 (Form B), 0 hrs, pH 6
[6] = 289-MBA-15-A 10 mg/mL pH 6 (Form B), 1 hrs, pH 6.1
[7] = 289-MBA-15-A 10 mg/mL pH 6 (Form B), 4 hrs, pH 6
[8] = 289-MBA-15-A 10 mg/mL pH 6 (Form B), 6 hrs, pH 5.9
[9] = 289-MBA-15-A 10 mg/mL pH 6 (Form B), 22 hrs, pH 5.9
[10] = 289-MBA-15-A 10 mg/mL pH 7 (Form B), 0 hrs, pH 7.4
[11] = 289-MBA-15-A 10 mg/mL pH 7 (Form B), 1 hrs, pH 7.4
[12] = 289-MBA-15-A 10 mg/mL pH 7 (Form B), 4 hrs, pH 7.4
[13] = 289-MBA-15-A 10 mg/mL pH 7 (Form B), 6 hrs, pH 7.3
[14] = Form A, aqueous, 4.2 mg/mL, Initial pH = 2.3, 0 hrs
[15] = Form A, aqueous, 4.2 mg/mL, Initial pH = 2.3, 1 hrs
[16] = Form A, aqueous, 4.2 mg/mL, Initial pH = 2.3, 2 hrs
[17] = Form A, aqueous, 4.2 mg/mL, Initial pH = 2.3, 6 hrs
[18] = Form A, aqueous, 12.5 mg/mL, Initial pH = 2.1, 0 hrs
[19] = Form A, aqueous, 12.5 mg/mL, Initial pH = 2.1, 1 hrs
[20] = Form A, aqueous, 12.5 mg/mL, Initial pH = 2.1, 2 hrs
[21] = Form A, aqueous, 12.5 mg/mL, Initial pH = 2.1, 6 hrs
[22] = Form A, aqueous, 21 mg/mL, Initial pH = 2.0, 0 hrs
[23] = Form A, aqueous, 21 mg/mL, Initial pH = 2.0, 1 hrs
[24] = Form A, aqueous, 21 mg/mL, Initial pH = 2.0, 2 hrs
[25] = Form A, aqueous, 21 mg/mL, Initial pH = 2.0, 6 hrs

In the case of `COc1ccc(CN2CCN(CCOC(=O)c3cccnc3)CC2)c(OC)c1OC` [CV-8972, 2-(4-(2,3,4-trimethoxybenzyl)piperazin-1-yl)ethyl nicotinate], the “Retention Time 2.2” value [1] is reported as 7.72, the “Retention Time 2.6” value [1] is reported as 1.13 and the “Retention Time 4.2” value [1] is reported as 0.86. The “Retention Time 4.7” value [1] was 1.14, the “Retention Time 5.6” value [1] was 89.15 and the “Retention Time 2.2” value [2] was 1.62. For the same compound, the “Retention Time 4.2” value [2] was 0.9, the “Retention Time 5.6” value [2] was 97.48 and the “Decrease in purity of CV-8972 between time points” value (“Decrease in purity” for short) [3] was 2.02. For the same compound, the “Retention Time 2.2” value [3] was 3.16, the “Retention Time 4.2” value [3] was 0.89 and the “Retention Time 4.7” value [3] was 0.49. The “Retention Time 5.6” value [3] was 95.46, the “Decrease in purity” value [4] was 1.54 and the “Retention Time 2.2” value [4] was 4.27. The “Retention Time 2.6” value [4] was 0.53, the “Retention Time 4.2” value [4] was 0.66 and the “Retention Time 4.7” value [4] was 0.62. The “Retention Time 5.6” value [4] was 93.92, the “Retention Time 2.2” value [5] was 3.3 and the “Retention Time 2.6” value [5] was 0.6. For the same compound, the “Retention Time 4.2” value [5] was 0.26, the “Retention Time 4.7” value [5] was 0.48 and the “Retention Time 5.6” value [5] was 95.36. The “Decrease in purity” value [6] was 0.55, the “Retention Time 2.2” value [6] was 3.76 and the “Retention Time 2.6” value [6] was 0.65. The “Retention Time 4.2” value [6] was 0.25, the “Retention Time 4.7” value [6] was 0.53 and the “Retention Time 5.6” value [6] was 94.81. The “Decrease in purity” value [7] was 0.12, the “Retention Time 2.2” value [7] was 3.97 and the “Retention Time 2.6” value [7] was 0.59. The “Retention Time 4.2” value [7] was 0.19, the “Retention Time 4.7” value [7] was 0.56 and the “Retention Time 5.6” value [7] was 94.69. For the same compound, the “Decrease in purity” value [8] was 0.3, the “Retention Time 2.2” value [8] was 4.3 and the “Retention Time 2.6” value [8] was 0.54. For the same compound, the “Retention Time 4.2” value [8] was 0.17, the “Retention Time 4.7” value [8] was 0.6 and the “Retention Time 5.6” value [8] was 94.39. For the same compound, the “Decrease in purity” value [9] was 0.46, the “Retention Time 2.2” value [9] was 4.53 and the “Retention Time 2.6” value [9] was 0.69. For the same compound, the “Retention Time 4.2” value [9] was 0.19, the “Retention Time 4.7” value [9] was 0.65 and the “Retention Time 5.6” value [9] was 93.93. The “Retention Time 2.2” value [10] was 6.2, the “Retention Time 2.6” value [10] was 1.16 and the “Retention Time 4.2” value [10] was 0.27. The “Retention Time 4.7” value [10] was 0.87, the “Retention Time 5.6” value [10] was 91.5 and the “Decrease in purity” value [11] was 5.32. For the same compound, the “Retention Time 2.2” value [11] was 10.47, the “Retention Time 2.6” value [11] was 1.65 and the “Retention Time 4.2” value [11] was 0.25. The “Retention Time 4.7” value [11] was 1.44, the “Retention Time 5.6” value [11] was 86.18 and the “Decrease in purity” value [12] was 3.82. For the same compound, the “Retention Time 2.2” value [12] was 13.64, the “Retention Time 2.6” value [12] was 1.93 and the “Retention Time 4.2” value [12] was 0.19. For the same compound, the “Retention Time 4.7” value [12] was 1.89, the “Retention Time 5.6” value [12] was 82.36 and the “Decrease in purity” value [13] was 2.99. The “Retention Time 2.2” value [13] was 15.66, the “Retention Time 2.6” value [13] was 2.57 and the “Retention Time 4.2” value [13] was 0.2. The “Retention Time 4.7” value [13] was 0.2, the “Retention Time 5.6” value [13] was 79.37 and the “Retention Time 3.9” value [14] was 5.35. The “Retention Time 5.4” value [14] was 94.65, the “% change from t0 of RT 5.4” value [15] was 1.41% and the “Retention Time 3.9” value [15] was 4.02. The “Retention Time 5.4” value [15] was 95.98, the “% change from t0 of RT 5.4” value [16] was −3.66% and the “Amount of peak at retention time 1.9” value [16] was 3.72. For the same compound, the “Retention Time 3.9” value [16] was 5.09, the “Retention Time 5.4” value [16] was 91.19 and the “% change from t0 of RT 5.4” value [17] was −10.21%. The “Amount of peak at retention time 1.9” value [17] was 9.71, the “Retention Time 3.9” value [17] was 5.3 and the “Retention Time 5.4” value [17] was 84.99. The “Retention Time 3.9” value [18] was 1.79, the “Retention Time 5.4” value [18] was 98.21 and the “% change from t0 of RT 5.4” value [19] was −1.02%. For the same compound, the “Amount of peak at retention time 1.9” value [19] was 1.38, the “Retention Time 3.9” value [19] was 1.41 and the “Retention Time 5.4” value [19] was 97.21. The “% change from t0 of RT 5.4” value [20] was −2.35%, the “Amount of peak at retention time 1.9” value [20] was 2.43 and the “Retention Time 3.9” value [20] was 1.67. For the same compound, the “Retention Time 5.4” value [20] was 95.9, the “% change from t0 of RT 5.4” value [21] was −8.79% and the “Retention Time 2.2” value [21] was 1.04. For the same compound, the “Retention Time 3.9” value [21] was 1.74, the “Retention Time 5.4” value [21] was 89.58 and the “Retention Time 3.9” value [22] was 1.12. For the same compound, the “Retention Time 5.4” value [22] was 98.88, the “% change from t0 of RT 5.4” value [23] was −0.86% and the “Amount of peak at retention time 1.9” value [23] was 1.03. For the same compound, the “Retention Time 3.9” value [23] was 0.94, the “Retention Time 5.4” value [23] was 98.03 and the “% change from t0 of RT 5.4” value [24] was −1.79%. The “Amount of peak at retention time 1.9” value [24] was 1.9, the “Retention Time 3.9” value [24] was 1 and the “Retention Time 5.4” value [24] was 97.11. The “% change from t0 of RT 5.4” value [25] was −6.78%, the “Retention Time 2.2” value [25] was 0.83 and the “Retention Time 3.9” value [25] was 0.96. The “Retention Time 5.4” value [25] was 92.18.
